Assay results from ChEMBL document CHEMBL1148824, “Quinazolinone derivatives as orally available ghrelin receptor antagonists for the treatment of diabetes and obesity” (J Med Chem, 2007).

Experiments:
Ghrelin receptor = Ghrelin receptor (Ovis aries, UniProt Q8MHZ5); assay: Displacement of [125I]ghrelin from ovine recombinant GHSR1a expressed in HEK293F cells after 6 hrs by scintillation proximity assay; assay type: cell-based
[1] = Cmax in Wistar rat at 10 mg/kg, po; assay type: ADME, organism-based; design: dose 10 mg/kg, route oral; settings: in vivo
[2] = Bioavailability in Wistar rat plasma at 3 mg/kg, po; assay type: ADME, organism-based
[3] = Bioavailability in Wistar rat plasma at 1 mg/kg, iv; assay type: ADME, organism-based

Ghrelin receptor, sequence (Q8MHZ5 whole entry): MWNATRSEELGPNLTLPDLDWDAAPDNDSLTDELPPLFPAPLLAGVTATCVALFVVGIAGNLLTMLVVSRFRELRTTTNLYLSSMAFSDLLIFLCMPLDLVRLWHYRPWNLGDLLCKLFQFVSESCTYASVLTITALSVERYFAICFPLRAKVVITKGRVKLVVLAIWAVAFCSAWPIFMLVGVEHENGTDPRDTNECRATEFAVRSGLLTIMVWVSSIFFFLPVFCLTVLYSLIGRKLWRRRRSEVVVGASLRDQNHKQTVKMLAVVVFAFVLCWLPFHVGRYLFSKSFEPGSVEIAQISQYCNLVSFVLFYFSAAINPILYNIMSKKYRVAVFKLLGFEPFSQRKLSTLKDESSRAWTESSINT

CCCCN(C)c1ccc2nc(-c3ccccc3OC)n(CC3CCCN(CC)C3)c(=O)c2c1 (centres undefined)
Ki (Ghrelin receptor): 20 nM | Cmax [1]: < 20 nM

CCN1CCCC(Cn2c(-c3ccccc3C)nc3ccc(-c4ccc(Cl)cc4)cc3c2=O)C1.Cl (centres undefined)
bioavailability [2]: 29% | bioavailability [3]: 29%
